# Experimental data: patent US20240279278A1, “NMU RECEPTOR 2 AGONISTS” (Boehringer Ingelheim International GmbH, priority 2023, published 2024)
# Residues, ends and D or L forms follow the SMILES beside them.
# Legend:
# [1] = target: T1, human NMUR1 receptor (Homo sapiens, UniProt Q9HB89); assay: Radioligand binding competition assay (RLB), human NMUR1 receptor binding (SPA, [125I]-Neuromedin U-25); conditions: CHO-K1 hNMUR1 cell membranes, 4 hours at RT
# T1 construct: host or cells: CHO-K1
# T1 sequence (Q9HB89 24-426 limits assumed): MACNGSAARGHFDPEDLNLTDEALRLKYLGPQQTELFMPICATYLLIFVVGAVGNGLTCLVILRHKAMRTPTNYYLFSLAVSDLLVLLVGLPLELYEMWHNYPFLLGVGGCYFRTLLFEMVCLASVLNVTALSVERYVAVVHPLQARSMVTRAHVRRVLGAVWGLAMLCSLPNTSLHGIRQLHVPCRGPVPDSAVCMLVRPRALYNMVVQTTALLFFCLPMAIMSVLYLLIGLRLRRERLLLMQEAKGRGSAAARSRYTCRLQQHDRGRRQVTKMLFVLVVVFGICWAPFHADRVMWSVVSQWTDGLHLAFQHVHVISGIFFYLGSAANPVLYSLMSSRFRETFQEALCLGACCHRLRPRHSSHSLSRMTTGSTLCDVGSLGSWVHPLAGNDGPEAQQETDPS
# Text: Example 2: Radioligand Binding Competition Assay (RLB) Human NMUR1 Receptor Binding 1) Membranes The test is based on membranes prepared from a human NMUR1/Apoaequorin Stable Cell Line (Creative Biogene, Cat. No. CSC-RG1308). Cell Line Description: CHO-NMUR1 cell line is clonally-derived from a CHO-K1 cell line, which has been transfected with a bicistronic expression plasmid containing the sequence coding for the human neuromedin U receptor 1 (NM_006056.4, 180 to 1391). Mosaic-ID: CL16550614 Membrane preparation: Cells were broken by nitrogen cavitation (900 psi, 1 hour). Intact cells were removed by centrifugation (400 rcf, 10 minutes, 4° C.) before the crude membrane fraction was collected by ultracentrifugation (20.000 rcf, 1 hour, 4° C.). 2) Human NMUR1 Receptor Binding Assay (Radioligand: [125l]-Neuromedin U-25) In this Scintillation Proximity Assay (SPA) design, the membranes immobilize directly to the PVT-WGA-PEI type A beads (polyethyleneimine treated polyvinyltoluene beads coupled to wheatgerm agglutinin, Perkin Elmer) via interactions of wheat germ agglutinate and glycosylated membrane structures. Thereby the radioactively la-belled ligand, bound to NMUR1 receptors on the membrane, comes in close proximity to the solid scintillator of the PVT bead. Radioactive human neuromedin U-25 then stimulates the scintillant to emit light. In contrast, radioligand not bound to the receptor is too distant from the bead to elicit a signal. For the Scintillation Proximity Assay the CHO-K1 hNMUR1 cell membranes and SPA-beads are diluted to concentrations, which assure a robust signal to background ratio. The SPA incubation buffer consists of 25 mM Hepes (pH=7.0), 5 mM MgCl2, 1 mM CaCl2, 10 ug/mL Saponine and 0.1% bovine serum albumin and is used for all dilutions. Final assay setup in 96-well plate: 20 μL of 10× test compound dilutions+40 μL of 5× [125l]-Neuromedin U-25 (1× approx. 30 pM; 2000 μCi/mmol (μCi=microcurie))+60 μL membrane dilution (approx. 1.0 μg membrane protein)+80 μL SPA bead dilution (250 μg). The assay is incubated for 4 hours at RT, including controls for specific binding where no displacer is added and non-specific binding by adding unlabeled hNMU-25 at 100 nM. Bound radioactivity is determined by scintillation counting (MicroBeta Trilux 1450, Perkin Elmer, detection of 125I decay). […] The system assumes one binding site with no relevant radioligand depletion (<10%) and that the binding is reversible and at equilibrium. [formula] [formula]
# [2] = target: human NMUR2 receptor (Homo sapiens, UniProt Q9GZQ4); assay: Radioligand binding competition assay (RLB), human NMUR2 receptor binding (SPA, [125I]-Neuromedin U-25); set-up: host or cells: CHO-K1; conditions: CHO-K1 hNMUR2 cell membranes, 4 hours at RT
# Chain of human NMUR2 receptor (Q9GZQ4 whole entry): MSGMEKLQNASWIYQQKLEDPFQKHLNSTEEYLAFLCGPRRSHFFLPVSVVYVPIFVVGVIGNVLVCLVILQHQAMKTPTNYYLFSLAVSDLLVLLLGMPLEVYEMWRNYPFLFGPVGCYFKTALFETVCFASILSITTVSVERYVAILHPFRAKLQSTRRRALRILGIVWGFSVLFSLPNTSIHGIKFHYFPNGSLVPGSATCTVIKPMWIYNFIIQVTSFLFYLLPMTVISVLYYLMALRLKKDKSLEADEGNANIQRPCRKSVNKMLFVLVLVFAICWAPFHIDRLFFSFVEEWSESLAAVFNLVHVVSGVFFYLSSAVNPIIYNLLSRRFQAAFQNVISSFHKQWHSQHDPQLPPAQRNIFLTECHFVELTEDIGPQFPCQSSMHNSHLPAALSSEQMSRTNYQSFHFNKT
# Text: Example 1: Radioligand Binding Competition Assay (RLB) Human NMUR2 Receptor Binding
# The test is based on membranes prepared from a Human NMUR2/Apoaequorin Stable Cell Line (Creative Biogene, Cat. No. CSC-RG1309).
# Cell Line Description: CHO-NMUR2 cell line is clonally derived from a CHO-K1 cell line, which has been transfected with a bicistronic expression plasmid containing the sequence coding for the human neuromedin U receptor 2 (AF242874.1). MOSAIC-ID: CL16550616.
# Membrane preparation: Cells were broken by nitrogen cavitation (900 psi, 1 hour). Intact cells were removed by centrifugation (400 rcf (relative centrifugal force), 10 minutes, 4° C.) before the crude membrane fraction was collected by ultracentrifugation (20.000 rcf, 1 hour, 4° C.).
# 2) Human NMUR2 Receptor Binding Assay (Radioligand: [125I]-Neuromedin U-25 (Human))
# In this Scintillation Proximity Assay (SPA) design, the membranes immobilize directly to the PVT-WGA-PEI type A beads (polyethyleneimine treated polyvinyltoluene beads coupled to wheatgerm agglutinin, Perkin Elmer) via interactions of wheat germ agglutinate and glycosylated membrane structures. Thereby the radioactively la-belled ligand, bound to NMUR2 receptors on the membrane, comes in close proximity to the solid scintillator of the PVT bead. Radioactive human neuromedin U-25 then stimulates the scintillant to emit light. In contrast, radioligand not bound to the receptor is too distant from the bead to elicit a signal.
# For the Scintillation Proximity Assay the CHO-K1 hNMUR2 cell membranes and SPA-beads are diluted to concentrations, which assure a robust signal to background ratio. The SPA incubation buffer consists of 25 mM Hepes (pH=7.0), 5 mM MgCl2, 1 mM CaCl2, 10 ug/mL Saponine and 0.1% bovine serum albumin and is used for all dilutions.
# Final assay setup in 96-well plate: 20 μL of 10× test compound dilutions+40 μL of 5× [125l]-Neuromedin U-25 (1× approx. 30 pM; 2000 μCi/mmol)+60 μL membrane dilution (approx. 2.5 μg membrane protein)+80 μL SPA bead dilution (0.75 mg).
# The assay is incubated for 4 hours at RT, including controls for specific binding where no displacer is added and non-specific binding by adding unlabeled hNMU-25 at 100 nM. Bound radioactivity is determined by scintillation counting (MicroBeta Trilux 1450, Perkin Elmer, detection of 125I decay). […] The system assumes one binding site with no relevant radioligand depletion (<10%) and that the binding is reversible and at equilibrium.
SMILES,Ki [1] [nM],Ki [2] [nM]
"CCCC[C@H](NC(=O)[C@H](CC(C)C)N(C)C(=O)[C@H](Cc1ccccc1)NC(=O)[C@H](Cc1ccc(O)cc1)NC(=O)CN1CCN(CCNC(=O)CN(C)C(=O)CN(C)C(=O)CN(C)C(=O)CN(C)C(=O)CN(C)C(=O)CN(C)C(=O)CN(C)C(=O)CN(C)C(=O)CN(C)C(=O)CN(C)C(=O)CN(C)C(=O)CN(C)C(=O)CN(C)C(=O)CN(C)C(=O)CN(C)C(=O)CC[C@H](NC(=O)CC[C@H](NC(=O)CC[C@H](NC(=O)CCCCCCCCCCCCCCCCCCC(=O)O)C(=O)O)C(=O)O)C(=O)O)CC1)C(=O)N[C@@H](CCCNC(=N)N)C(=O)N1CCC[C@H]1C(=O)N[C@@H](CCCNC(=N)N)C(=O)NCC(N)=O [Compound 9, C20DA-gGlu3-Sar15-AEPipAc-Tyr-Phe-NMeLeu-Nle-Arg-Pro-Arg-Gly-NH2] (HELM PEPTIDE1{[O=C(O)CCCCCCCCCCCCCCCCCCC(=O)[*:2]].[gGlu].[gGlu].[gGlu].[Sar].[Sar].[Sar].[Sar].[Sar].[Sar].[Sar].[Sar].[Sar].[Sar].[Sar].[Sar].[Sar].[Sar].[Sar].[O=C(CN1CCN(CCN[*:1])CC1)[*:2]].Y.F.[meL].[Nle].R.P.R.G.[am]}$$$$V2.0)",> 10000,58.3
"CCCC[C@H](NC(=O)[C@H](CC(C)C)N(C)C(=O)[C@H](Cc1ccccc1)NC(=O)[C@H](Cc1ccc(O)cc1)NC(=O)CN1CCN(CCNC(=O)CN(C)C(=O)CN(C)C(=O)CN(C)C(=O)CN(C)C(=O)CN(C)C(=O)CN(C)C(=O)CN(C)C(=O)CN(C)C(=O)CN(C)C(=O)CN(C)C(=O)CN(C)C(=O)CN(C)C(=O)CN(C)C(=O)CN(C)C(=O)CN(C)C(=O)CC[C@H](NC(=O)CC[C@H](NC(=O)CC[C@H](NC(=O)CCCCCCCCCCCCCCCCCCC(=O)O)C(=O)O)C(=O)O)C(=O)O)CC1)C(=O)N[C@@H](CCCNC(=N)N)C(=O)N(C)[C@@H](C)C(=O)N[C@@H](CCCNC(=N)N)C(=O)NCC(N)=O [Compound 10, C20DA-gGlu3-Sar15-AEPipAc-Tyr-Phe-NMeLeu-Nle-Arg-NMeAla-Arg-Gly-NH2] (HELM PEPTIDE1{[O=C(O)CCCCCCCCCCCCCCCCCCC(=O)[*:2]].[gGlu].[gGlu].[gGlu].[Sar].[Sar].[Sar].[Sar].[Sar].[Sar].[Sar].[Sar].[Sar].[Sar].[Sar].[Sar].[Sar].[Sar].[Sar].[O=C(CN1CCN(CCN[*:1])CC1)[*:2]].Y.F.[meL].[Nle].R.[meA].R.G.[am]}$$$$V2.0)",> 10000,204
"CCCC[C@H](NC(=O)[C@H](CC(C)C)N(C)C(=O)[C@H](Cc1ccccc1)NC(=O)[C@H](Cc1ccc(O)cc1)NC(=O)CN1CCN(CCNC(=O)CN(C)C(=O)CN(C)C(=O)CN(C)C(=O)CN(C)C(=O)CN(C)C(=O)CN(C)C(=O)CN(C)C(=O)CN(C)C(=O)CN(C)C(=O)CN(C)C(=O)CN(C)C(=O)CN(C)C(=O)CN(C)C(=O)CN(C)C(=O)CN(C)C(=O)CC[C@H](NC(=O)CC[C@H](NC(=O)CC[C@H](NC(=O)CCCCCCCCCCCCCCCCC(=O)O)C(=O)O)C(=O)O)C(=O)O)CC1)C(=O)N[C@@H](CCCNC(=N)N)C(=O)N(C)[C@@H](C)C(=O)N[C@@H](CCCNC(=N)N)C(=O)NCC(N)=O [Compound 11, C18DA-gGlu3-Sar15-AEPipAc-Tyr-Phe-NMeLeu-Nle-Arg-NMeAla-Arg-Gly-NH2] (HELM PEPTIDE1{[O=C(O)CCCCCCCCCCCCCCCCC(=O)[*:2]].[gGlu].[gGlu].[gGlu].[Sar].[Sar].[Sar].[Sar].[Sar].[Sar].[Sar].[Sar].[Sar].[Sar].[Sar].[Sar].[Sar].[Sar].[Sar].[O=C(CN1CCN(CCN[*:1])CC1)[*:2]].Y.F.[meL].[Nle].R.[meA].R.G.[am]}$$$$V2.0)",> 10000,76.3
"CCCC[C@H](NC(=O)[C@H](CC(C)C)N(C)C(=O)[C@H](Cc1ccccc1)NC(=O)[C@H](Cc1ccc(O)cc1)NC(=O)CN1CCN(CCNC(=O)CN(C)C(=O)CN(C)C(=O)CN(C)C(=O)CN(C)C(=O)CN(C)C(=O)CN(C)C(=O)CN(C)C(=O)CN(C)C(=O)CN(C)C(=O)CN(C)C(=O)CN(C)C(=O)CN(C)C(=O)CC[C@H](NC(=O)CC[C@H](NC(=O)CC[C@H](NC(=O)CCCCCCCCCCCCCCCCC(=O)O)C(=O)O)C(=O)O)C(=O)O)CC1)C(=O)N[C@@H](CCCNC(=N)N)C(=O)N(C)[C@@H](C)C(=O)N[C@@H](CCCNC(=N)N)C(=O)NCC(N)=O [Compound 12, C18DA-gGlu3-Sar12-AEPipAc-Tyr-Phe-NMeLeu-Nle-Arg-NMeAla-Arg-Gly-NH2]",> 10000,36.2
"CCCC[C@H](NC(=O)[C@H](CC(C)C)N(C)C(=O)[C@H](Cc1ccccc1)NC(=O)[C@H](Cc1ccc(O)cc1)NC(=O)CN1CCN(CCNC(=O)CN(C)C(=O)CN(C)C(=O)CN(C)C(=O)CN(C)C(=O)CN(C)C(=O)CN(C)C(=O)CN(C)C(=O)CN(C)C(=O)CN(C)C(=O)CC[C@H](NC(=O)CC[C@H](NC(=O)CC[C@H](NC(=O)CCCCCCCCCCCCCCCCCCC(=O)O)C(=O)O)C(=O)O)C(=O)O)CC1)C(=O)N[C@@H](CCCNC(=N)N)C(=O)N1CCC[C@H]1C(=O)N[C@@H](CCCNC(=N)N)C(=O)NCC(N)=O [Compound 65, C20DA-gGlu3-Sar9-AEPipAc-Tyr-Phe-NMeLeu-Nle-Arg-Pro-Arg-Gly-NH2] (HELM PEPTIDE1{[O=C(O)CCCCCCCCCCCCCCCCCCC(=O)[*:2]].[gGlu].[gGlu].[gGlu].[Sar].[Sar].[Sar].[Sar].[Sar].[Sar].[Sar].[Sar].[Sar].[O=C(CN1CCN(CCN[*:1])CC1)[*:2]].Y.F.[meL].[Nle].R.P.R.G.[am]}$$$$V2.0)",722,25.3
